Assay results from US20040039014A1, “Methods and compounds for treating depression and other disorders” (NPS Pharmaceuticals, Inc., priority 1998, published 2004).
Counter-ions that a name gives are not always drawn. Marks after values point to notes of the source that are not given here.

Tests used:
male Sprague-Dawley rats = experiment: Rat forced-swim test (FST); assay type: in vivo; conditions: Table VI, 60 minutes prior to testing, saline control 47.9
Method: For the mouse and rat forced-swim tests, male pathogen-free NIH-Swiss mice (Harlan Sprague-Dawley) weighing between 22-25 g, and male pathogen-free Sprague-Dawley rats (Harlan Sprague-Dawley) weighing between 320-350 g were used. Animals were removed from the housing room to the testing area in their own cages and allowed to adapt to the new environment for at least 1 hour before testing. Mice were administered either drug (imipramine, 10 mg/kg i.p.; or Compound 60, various p.o or i.p. doses) or saline. Thirty minutes to 24 hours later, mice were placed individually in cylinders (diameter: 10 cm; height: 25 cm) filled with 6 cm of water (22-25° C.) for 6 minutes. The duration of immobility during the last 4 minutes of the 6 minute test was scored. A mouse was recorded as immobile when floating motionless or making only those movements necessary to keep its head above water. Results were expressed as the duration of immobility (seconds).
The rat forced-swim test was conducted over two days. On treatment Day 1, rats were placed individually in cylinders (diameter: 18 cm; height: 40 cm) filled with water (22-25° C.) to a depth of 15 cm for 15 minutes. The duration of immobility during the first 5 minutes was scored. After testing, the rats were dried with paper towels and placed in holding cages. Five minutes after removal from the testing cylinders, animals received either drug (imipramine, 10 mg/kg i.p.; or Compound 60, various p.o. doses) or saline (p.o.). Ten minutes later, the rats were returned to their home cages. […] The duration of immobility during the first 5 minute period was recorded. A rat was recorded as immobile when floating motionless or making only those movements necessary to keep its head above water. […]

Solubility = assay type: physicochemical; conditions: hydrochloride salt
NMDA receptor = target: T1, NMDA receptor; experiment: [3H]MK-801 binding assay (rat cortex synaptic plasma membranes); conditions: read-out: [3H]MK-801 data IC50, Table I
T1 construct: rat cortex membranes
Method: Synaptic plasma membranes (SPMs) from rat cortex were prepared as follows. Isolated cerebral cortices from male and female rats were purchased from Pel-Freez (Rogers, Ariz.) in bulk, and stored at −80° C. The cortices from 25 rats were thawed and pooled. […] The resulting homogenates were centrifuged for 10 min at 1,000×g in a T865 rotor, UltraPro80 Sorvall Centrifuge. The supernatant was removed and subsequently centrifuged at 30,000×g for 30 min. […] Membranes were washed by re-suspension in 500 ml of 5 mM K-EDTA (pH 7.0), incubated at 32° C. for 30 min with stirring, and centrifuged at 100,000×g for 30 min. The final pellet was resuspended in 60 ml of […] K-EDTA (pH 7.0) and stored in aliquots at −80° C. The extensive washing procedure utilized in this assay was designed to minimize the concentrations of glutamate and glycine (co-agonists at the NMDA receptor-ionophore complex) present in the membrane preparation.
On the day of assay, aliquots of SPM were thawed and resuspended in 75 vols of 5 mM K-EDTA, pH 7.0. SPM were centrifuged at 100,000×g for 30 min at 4° C.
The SPM pellet was resuspended in assay buffer (30 mM EPPS, 1 mM K-EDTA, pH 7.0) by polytron. […] Binding was started by the addition of the tissue homogenate. The assay was terminated by the addition of 4 ml ice-cold buffer, followed by filtration over glass-fiber filters (Schleicher & Schuell No. 30) on a Millipore 12-well filtration manifold. Filters were washed with another 3 ×4 ml ice-cold buffer (pH 7.0). Radioactivity on the filters was measured using Fisherbrand Scinti-Safe scintillation cocktail. Samples were shaken for 45-60 min on a shaker platform to solubilize the radioactivity. Counting for ^3H was performed in a Beckman 6000IC LS Scintillation Counter for 4 min per sample.

For `CNCCC(c1cccc(F)c1)c1cccc(F)c1` [Compound 60, N-Methyl-3.,3-bis(3-fluorophenyl)propylamine hydrochloride], the “Mean Change in the Duration of Immobility (Day 2 minus Day 1)” value (from here on “Mean Change … (Day 2 minus Day 1)”) (male Sprague-Dawley rats; 1.25 mg/kg oral) was 29.7 s, the “Mean Change … (Day 2 minus Day 1)” value (male Sprague-Dawley rats; 2.5 mg/kg oral) was −24.8* sec and the “Mean Change … (Day 2 minus Day 1)” value (male Sprague-Dawley rats; 5 mg/kg oral) was −28.8* sec. For the same molecule, the solubility (Solubility; ethanol, organic solvent or mixture, EtOH) was 1000 mg/mL, the solubility (Solubility; water, H2O) was 2000 mg/mL and the IC50 (NMDA receptor) was 641 nM.
